Key:
CYP2C8 = test system: T1, CYP2C8; test: Inhibition of CYP2C8 (paclitaxel 6α-hydroxylation) in pooled human liver microsomes; format: in vitro ADME; conditions: GAA 100 μM; pooled HLM
T1 construct: from tissue; host or cells: human liver microsomes
Procedure: (§1) All incubations were performed in triplicate, and the mean values were utilized. The typical incubation systems contained 100 mM potassium phosphate buffer (pH 7.4), NADPH generating system (1 mM NADP^+, 10 mM glucose-6-phosphate, 1 U/mL of glucose-6-phosphate dehydrogenase, and 4 mM MgCl2), the appropriate concentration of HLMs, a corresponding probe substrate and hispidulin (or positive inhibitor for different probe reactions) in a final volume of 200 μL.
(§2) The concentration of GAA was 100 μM, and the positive inhibitor concentrations were as follows: 10 μM furafylline for CYP1A2, 1 μM ketoconazole for CYP3A4, 10 μM tranylcypromine for CYP2A6, 50 μM clomethiazole for CYP2E1, 10 μM quinidine for CYP2D6, 10 μM sulfaphenazole for CYP2C9, 50 μM tranylcypromine for CYP2C19, 5 μM montelukast for CYP2C8. Probe substrates, positive inhibitors (except for dextromethorphan and quinidine, which were dissolved in water) and GAA were dissolved in methanol, with a final concentration of 1% (v/v), and 1% neat methanol was added to the incubations without inhibitor. […] The instrument used in this study was Agilent 1260 series instrument with DAD and FLD detector, and the quantitative assay for the corresponding metabolites was performed as previously reported (Lang et al. [2017]; Zhang et al. [2017]). […]

CYP3A4 [1] = target: T2, CYP3A4 (Homo sapiens, UniProt P08684); test: Time-dependent inhibition study, CYP3A4 in human liver microsomes; format: in vitro ADME
T2 construct: CYP3A4 catalyzed reactions (testosterone 6β-hydroxylation) in pooled HLM; from tissue; host or cells: pooled human liver microsomes
Procedure: (§3) To determine whether GAA could inhibit the activity of CYP3A4, 2D6, and 2E1 in a time-dependent manner, GAA (20 μM) was pre-incubated with HLMs (1 mg/mL) in the presence of an NADPH-generating system for 30 min at 37 °C. After incubation, an aliquot (20 μL) was transferred to another incubation tube (final volume 200 μL) containing an NADPH-generating system and probe substrates whose final concentrations were approximate to Km. Then, further incubations were performed to measure the residual activity. After being incubated for 10 and 30 min, the reactions were terminated by adding a 100 μL acetonitrile internal standard mix and then placed on ice; the corresponding metabolites were determined by HPLC.
To determine the KI and Kinact values for the inactivation of CYP3A4, the incubations were conducted using higher probe substrate concentrations (approximately 4-fold Km values) and various concentrations of GAA (0–50 μM) after different preincubation times (0–30 min), with a two-step incubation scheme, as described above.

CYP2C9 = test system: T3, CYP2C9; test: Inhibition of CYP2C9 (diclofenac 4′-hydroxylation) in pooled human liver microsomes; format: in vitro ADME; conditions: GAA 100 μM; pooled HLM
T3 construct: from tissue; host or cells: human liver microsomes
Procedure: as §1, §2

CYP2D6 [2] = target: T4, CYP2D6 (Homo sapiens, UniProt P10635); test: Inhibition of CYP2D6 (dextromethorphan O-demethylation) in pooled human liver microsomes; format: in vitro ADME
T4 construct: from tissue; host or cells: pooled human liver microsomes
Procedure: as §1
(§4) The concentration of GAA was 100 μM, and the positive inhibitor concentrations were as follows: 10 μM furafylline for CYP1A2, 1 μM ketoconazole for CYP3A4, 10 μM tranylcypromine for CYP2A6, 50 μM clomethiazole for CYP2E1, 10 μM quinidine for CYP2D6, 10 μM sulfaphenazole for CYP2C9, 50 μM tranylcypromine for CYP2C19, 5 μM montelukast for CYP2C8. Probe substrates, positive inhibitors (except for dextromethorphan and quinidine, which were dissolved in water) and GAA were dissolved in methanol, with a final concentration of 1% (v/v), and 1% neat methanol was added to the incubations without inhibitor. There was a 3 min preincubation period (at 37 °C) before the reaction was initiated by adding an NADPH-generating system. The reaction was terminated by adding a 100 μL acetonitrile (10% trichloroacetic acid for CYP2A6) internal standard mix, and the solution was placed on ice. The mixture was centrifuged at 12,000 rpm for 10 min, and an aliquot (50 μL) of supernatant was transferred for HPLC analysis. The instrument used in this study was Agilent 1260 series instrument with DAD and FLD detector, and the quantitative assay for the corresponding metabolites was performed as previously reported (Lang et al. [2017]; Zhang et al. [2017]).
(§5) GAA (100 μM) was used to initially screen for its direct inhibitory effects towards different human CYP isoforms. […]
(§6) The enzyme kinetic parameters for the probe reaction were estimated from the best fit line, using least-squares linear regression of the inverse substrate concentration versus the inverse velocity (Lineweaver-Burk plots), and the mean values were used to calculate Vmax and Km. Inhibition data from the experiments that were conducted using multiple compound concentrations were represented by Dixon plots, and inhibition constant (Ki) values were calculated using non-linear regression according to the following equation: v=(VmaxS)/(Km(1+I/Ki)+S), where I is the concentration of the compound, Ki is the inhibition constant, S is the concentration of the substrate, and Km is the substrate concentration at half the maximum velocity (Vmax) of the reaction. The mechanism of the inhibition was assessed using the Lineweaver-Burk plots and the enzyme inhibition models. […]

CYP3A4 [3] = target: T2, CYP3A4; test: Inhibition of CYP3A4 (testosterone 6β-hydroxylation) in pooled human liver microsomes; format: in vitro ADME
Procedure: as §1, §4, §5, §6

CYP2A6 = test system: T5, CYP2A6; test: Inhibition of CYP2A6 (coumarin 7-hydroxylation) in pooled human liver microsomes; format: in vitro ADME; conditions: GAA 100 μM; pooled HLM
T5 construct: from tissue; host or cells: human liver microsomes
Procedure: as §1, §2

CYP2D6 [4] = target: T4, CYP2D6; test: Time-dependent inhibition study, CYP2D6 in human liver microsomes; format: in vitro ADME; conditions: GAA 20 μM pre-incubated with HLMs and NADPH for 30 min
Procedure: as §3

[5] = design: method as in Teekachunhatean et al. [2012]; Tseng et al. [2014]; conditions: after oral administration of 3000 mg Lingzhi; ref Teekachunhatean et al. [2012]; Tseng et al. [2014]; cited from earlier work
CYP2E1 [6] = target: T6, CYP2E1 (Homo sapiens, UniProt P05181); test: Time-dependent inhibition study, CYP2E1 in human liver microsomes; format: in vitro ADME; conditions: GAA 20 μM pre-incubated with HLMs and NADPH for 30 min
T6 construct: CYP2E1 catalyzed reactions (chlorzoxazone 6-hydroxylation) in pooled HLM; from tissue; host or cells: pooled human liver microsomes
Procedure: as §3

CYP1A2 = test system: T7, CYP1A2; test: Inhibition of CYP1A2 (phenacetin O-deethylation) in pooled human liver microsomes; format: in vitro ADME; conditions: GAA 100 μM; pooled HLM
T7 construct: to investigate the effects of GAA on different CYP isoforms in HLM; from tissue; host or cells: human liver microsomes
Procedure: as §1, §2

CYP2E1 [7] = target: T6, CYP2E1; test: Inhibition of CYP2E1 (chlorzoxazone 6-hydroxylation) in pooled human liver microsomes; format: in vitro ADME
Procedure: as §1, §4, §5, §6

CYP2C19 = test system: T8, CYP2C19; test: Inhibition of CYP2C19 (S-mephenytoin 4-hydroxylation) in pooled human liver microsomes; format: in vitro ADME; conditions: GAA 100 μM; pooled HLM
T8 construct: from tissue; host or cells: human liver microsomes
Procedure: as §1, §2

T4 sequence (P10635 whole entry): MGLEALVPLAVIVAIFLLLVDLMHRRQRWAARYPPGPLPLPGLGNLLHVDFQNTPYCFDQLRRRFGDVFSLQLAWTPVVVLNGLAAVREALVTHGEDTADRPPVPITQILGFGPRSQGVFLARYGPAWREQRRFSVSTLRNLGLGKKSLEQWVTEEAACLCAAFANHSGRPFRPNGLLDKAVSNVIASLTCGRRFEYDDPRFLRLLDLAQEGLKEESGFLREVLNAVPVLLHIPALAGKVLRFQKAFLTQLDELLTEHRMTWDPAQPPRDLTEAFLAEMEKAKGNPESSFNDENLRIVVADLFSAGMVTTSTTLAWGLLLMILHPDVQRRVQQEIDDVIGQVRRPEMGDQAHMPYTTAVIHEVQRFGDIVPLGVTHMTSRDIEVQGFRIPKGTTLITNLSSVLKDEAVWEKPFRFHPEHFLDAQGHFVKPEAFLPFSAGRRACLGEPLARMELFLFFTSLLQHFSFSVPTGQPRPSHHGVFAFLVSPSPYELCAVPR
T2 sequence (P08684 whole entry): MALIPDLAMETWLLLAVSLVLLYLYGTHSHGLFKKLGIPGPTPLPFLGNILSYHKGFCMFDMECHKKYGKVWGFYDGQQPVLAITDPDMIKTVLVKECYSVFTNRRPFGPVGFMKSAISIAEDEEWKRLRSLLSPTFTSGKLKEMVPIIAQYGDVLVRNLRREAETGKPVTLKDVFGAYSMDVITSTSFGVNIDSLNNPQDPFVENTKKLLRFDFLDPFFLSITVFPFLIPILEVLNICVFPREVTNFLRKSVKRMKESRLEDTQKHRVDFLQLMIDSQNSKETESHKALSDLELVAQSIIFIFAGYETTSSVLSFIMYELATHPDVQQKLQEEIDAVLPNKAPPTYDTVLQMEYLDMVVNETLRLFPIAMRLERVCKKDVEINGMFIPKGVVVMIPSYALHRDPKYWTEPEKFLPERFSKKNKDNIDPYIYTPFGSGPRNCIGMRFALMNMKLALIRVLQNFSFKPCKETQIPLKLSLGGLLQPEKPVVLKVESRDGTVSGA
T6 sequence (P05181 whole entry): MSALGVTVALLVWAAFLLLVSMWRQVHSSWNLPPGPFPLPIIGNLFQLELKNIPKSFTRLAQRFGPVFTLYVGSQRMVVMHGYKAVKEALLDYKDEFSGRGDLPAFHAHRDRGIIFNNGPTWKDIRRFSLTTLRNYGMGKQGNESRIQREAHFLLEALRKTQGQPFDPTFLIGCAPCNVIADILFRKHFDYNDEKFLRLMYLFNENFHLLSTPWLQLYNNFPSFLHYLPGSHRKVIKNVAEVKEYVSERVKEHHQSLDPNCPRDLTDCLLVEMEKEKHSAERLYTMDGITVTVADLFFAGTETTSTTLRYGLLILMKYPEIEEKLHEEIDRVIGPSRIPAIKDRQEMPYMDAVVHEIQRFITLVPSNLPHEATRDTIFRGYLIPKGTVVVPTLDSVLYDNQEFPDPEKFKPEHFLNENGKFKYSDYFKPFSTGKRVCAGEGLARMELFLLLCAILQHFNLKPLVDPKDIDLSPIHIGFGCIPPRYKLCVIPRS

Question: For `C[C@H](CC(=O)C[C@@H](C)[C@H]1C[C@H](O)[C@@]2(C)C3=C(C(=O)C[C@]12C)[C@@]1(C)CCC(=O)C(C)(C)[C@@H]1C[C@@H]3O)C(=O)O` [GAA, Ganoderic acid A], which “effect on the activity of CYP2C8” value (CYP2C8) is on record?
Answer: did not exert effect

Question: What about the “time dependence of inhibition of CYP3A4” value (CYP3A4 [1]; GAA 20 μM pre-incubated with HLMs and NADPH for 30 min) of the same molecule?
Answer: time-dependent

Question: What about the “CYP3A4 inactivated every minute” value (CYP3A4 [1]; concluded from the value of Kinact, GAA incubated with HLM) of the same molecule?
Answer: about 4.8%

Question: And the “effect on the activity of CYP2C9” value (CYP2C9)?
Answer: did not exert effect

Question: And the IC50 (CYP2D6 [2])?
Answer: 21.8 µM

Question: What about the Ki (CYP2D6 [2]) of the same molecule?
Answer: 10.1 µM

Question: What about the “activity of CYP2D6, % of negative control” value (CYP2D6 [2]; GAA 100 μM, pooled HLM, dextromethorphan O-demethylation, remaining activity) of the same molecule?
Answer: 18.2%

Question: And the “inhibition model of CYP2D6” value (CYP2D6 [2]; Lineweaver-Burk plots)?
Answer: competitively

Question: And the IC50 (CYP3A4 [3])?
Answer: 15 µM

Question: And the Ki (CYP3A4 [3])?
Answer: 7.16 µM

Question: And the “activity of CYP3A4, % of negative control” value (CYP3A4 [3]; GAA 100 μM, pooled HLM, testosterone 6β-hydroxylation, remaining activity)?
Answer: 14.6%

Question: And the “inhibition model of CYP3A4” value (CYP3A4 [3]; Lineweaver-Burk plots)?
Answer: non-competitive

Question: What about the “effect on the activity of CYP2A6” value (CYP2A6) of the same molecule?
Answer: did not exert effect

Question: What about the “time dependence of inhibition of CYP2D6” value (CYP2D6 [4]) of the same molecule?
Answer: stable with incubation time

Question: What about the “maximum concentration in plasma of GAA” value [5] of the same molecule?
Answer: 2.24 to 10.99 ng/mL

Question: What about the “time dependence of inhibition of CYP2E1” value (CYP2E1 [6]) of the same molecule?
Answer: stable with incubation time

Question: What about the “effect on the activity of CYP1A2” value (CYP1A2) of the same molecule?
Answer: did not exert effect

Question: What about the IC50 (CYP2E1 [7]) of the same molecule?
Answer: 28.3 µM

Question: What about the Ki (CYP2E1 [7]) of the same molecule?
Answer: 13.4 µM

Question: What about the “activity of CYP2E1, % of negative control” value (CYP2E1 [7]; GAA 100 μM, pooled HLM, chlorzoxazone 6-hydroxylation, remaining activity) of the same molecule?
Answer: 27.7%

Question: What about the “inhibition model of CYP2E1” value (CYP2E1 [7]; Lineweaver-Burk plots) of the same molecule?
Answer: competitively

Question: And the “effect on the activity of CYP2C19” value (CYP2C19)?
Answer: did not exert effect
